Assay results: patent US7943632B2, “High potency dopaminergic treatment of neurological impairment associated with brain injury” (NeuroHealing Pharmaceuticals, Inc., priority 2003, dated 2011)

What was measured:
[1] = system: Patient 01, traumatic brain injury (TBI); experiment: Prior drug treatment in clinical history of Patient 01; format: in vivo, human; conditions: 15 mg/day for 12 days, before apomorphine study
[2] = system: patients of post-traumatic brain injury vegetative state (VS) and minimally conscious state (MCS); experiment: Apomorphine open label study, Disability Rating Scale; format: in vivo, human
[3] = system: patients of post-traumatic brain injury vegetative state (VS) and minimally conscious state (MCS); experiment: Apomorphine open label study, Extended Glasgow Outcome Scale (GOS-E); format: in vivo, human
[4] = system: patients of post-traumatic brain injury vegetative state (VS) and minimally conscious state (MCS); experiment: Apomorphine open label study, Coma/Near Coma (CNC) Scale; format: in vivo, human
[5] = system: patients of post-traumatic brain injury vegetative state (VS) and minimally conscious state (MCS); conditions: in vivo
[6] = cited from earlier work
[7] = system: patients of post-traumatic brain injury vegetative state (VS) and minimally conscious state (MCS); experiment: Apomorphine open label study, efficacy observations; format: in vivo, human
Experimental: The patients received the maximum tolerated dose, 12 to 16 hours per day, for up to 84 days (or shorter or longer as indicated). If the patient developed an adverse event, the dose was reduced or eliminated, according to the opinion of the attending physician. To prevent side effects from dopaminergic stimulation (such as nausea), domperidone was administered starting 24-72 hours (h) prior to initiation of the drug therapy.

[8] = system: patients of post-traumatic brain injury vegetative state (VS) and minimally conscious state (MCS); experiment: Apomorphine open label study, safety observations; conditions: Patient 02; approximately 4 months from the accident, dosing interrupted Day 47
[9] = cited from earlier work; remark: listed apart in the source
[10] = system: D2-like dopamine receptors; conditions: cited from earlier work
[11] = Patient 01, Day 7 of s.c. apomorphine
[12] = Patient 01, Day 180, study termination
[13] = Patient 02, Day 7 of s.c. apomorphine
[14] = Patient 03, Day 7 of s.c. apomorphine
[15] = Patient 03, Day 180, treatment discontinued Day 84

## COC(=O)C(c1ccccc1)C1CCCCN1 (stereo not drawn) [methylphenidate]
[1]
  Response to treatment: no response to treatment

## CN1CCc2cccc3c2[C@H]1Cc1ccc(O)c(O)c1-3 [apomorphine, (R)-5,6,6a,7-tetrahydro-6-methyl-4H-dibenzo[de,g]quinolin-10,11-diol]
[2]; Patient 01, Day 0 (baseline)
  DRS: 21
[2]; [11]
  DRS: 13
[2]; Patient 01, Day 14
  DRS: 13
[2]; Patient 01, Day 21
  DRS: 12.5
[2]; Patient 01, Day 28
  DRS: 12.5
[2]; Patient 01, Day 42
  DRS: 12
[2]; Patient 01, Day 56
  DRS: 10.5
[2]; Patient 01, Day 70
  DRS: 10.5
[2]; Patient 01, Day 84
  DRS: 10
[2]; [12]
  DRS: 15
[2]; Patient 02, Day 0 (baseline)
  DRS: 26
[2]; [13]
  DRS: 24
[2]; Patient 02, Day 14
  DRS: 19
[2]; Patient 02, Day 21
  DRS: 22
[2]; Patient 02, Day 28
  DRS: 22
[2]; Patient 03, Day 0 (baseline)
  DRS: 23
[2]; [14]
  DRS: 22
[2]; Patient 03, Day 14
  DRS: 22
[2]; Patient 03, Day 21
  DRS: 22
[2]; Patient 03, Day 28
  DRS: 22
[2]; Patient 03, Day 42
  DRS: 22
[2]; Patient 03, Day 56
  DRS: 22
[2]; Patient 03, Day 70
  DRS: 22
[2]; Patient 03, Day 84
  DRS: 21
[2]; [15]
  DRS: 12
[3]; Patient 01, Day 7
  GOS-E: 3
[3]; Patient 01, Day 14
  GOS-E: 3
[3]; Patient 01, Day 84
  GOS-E: 3
[3]; [12]
  GOS-E: 3
[3]; Patient 03, Day 84
  GOS-E: 3
[3]; Patient 03, baseline
  GOS-E: 2
[4]; Patient 01, Day 0 (baseline)
  CNC: 20
[4]; [11]
  CNC: 2
[4]; Patient 01, Day 14
  CNC: 0
[4]; Patient 01, Day 21
  CNC: 0
[4]; Patient 01, Day 28
  CNC: 0
[4]; Patient 01, Day 42
  CNC: 0
[4]; Patient 01, Day 56
  CNC: 0
[4]; Patient 01, Day 70
  CNC: 0
[4]; Patient 01, Day 84
  CNC: 0
[4]; [12]
  CNC: 0
[4]; Patient 02, Day 0 (baseline)
  CNC: 36
[4]; Patient 02, Day 0 (baseline), listed as Apomorphine
  CNC: 37
[4]; [13]
  CNC: 33
[4]; Patient 02, Day 14
  CNC: 24
[4]; Patient 02, Day 21
  CNC: 24
[4]; Patient 02, Day 28
  CNC: 24
[4]; Patient 02, Day 42
  CNC: 26
[4]; Patient 03, Day 0 (baseline)
  CNC: 33
[4]; [14]
  CNC: 22
[4]; Patient 03, Day 14
  CNC: 18
[4]; Patient 03, Day 21
  CNC: 12
[4]; Patient 03, Day 28
  CNC: 12
[4]; Patient 03, Day 42
  CNC: 16
[4]; Patient 03, Day 56
  CNC: 16
[4]; Patient 03, Day 70
  CNC: 12
[4]; Patient 03, Day 84
  CNC: 8
[4]; [15]
  CNC: 0
[5]
  Adverse event: seizure
  Adverse events: agitation and fever
  Dyskinesias and hallucinations after dose reduction: disappeared
  ECG and clinical labs: no abnormal values
[5]; sc
  Tolerability of dose escalation: well tolerated
[6]; from subcutaneous tissues
  Absorption and clearance: rapidly and completely absorbed from subcutaneous tissues and is rapidly cleared
[6]; parenterally administered
  Absorption: rapidly and completely absorbed
[7]; Patient 01, Day 1, hours after initial dosing, 2 mg/h
  Efficacy observation: moved right thumb to command
[7]; Patient 01, Day 2, 4 mg/h
  Efficacy observation: moved limbs on command and answered yes/no questions
[7]; Patient 01, Day 3, 6 mg/h
  Efficacy observation: Spoke by phone with sibling and named four friends in their room
[7]; Patient 01, Day 4, 8 mg/h
  Efficacy observation: named objects and associated them with their function
[7]; Patient 01, Day 5, 8 mg/h
  Efficacy observation: oriented to physician's last name and name of the institution
[7]; Patient 01, Day 18
  Effect of pump remaining off for two hours: decrease in their awareness status
  Time to regain “on” status after reconnection of the pump: ≤ 15 min
[7]; Patient 01, Day 84
  Effect of attempt to discontinue the treatment: regressed to an “off” state
[7]; Patient 02
  Day of trial on which patient started to follow simple commands: 9
[7]; Patient 02, first two weeks of drug administration, maintained until the bleeding event
  Efficacy observation: improvement in the patient's consciousness state
[7]; Patient 03, Day 2
  Efficacy observation: started to vocalize words
[7]; Patient 03, Day 62
  Efficacy observation: started to clearly respond to commands, recognize family members, respond to their name and respond to their age
[7]; Patient 03, Day 84
  Effect of first attempt to discontinue drug: maintained their motor and cognitive improvements
[7]; Patients 01, 02 and 03 after traumatic brain injury
  Overall efficacy on altered consciousness state: effective at improving the altered consciousness state
[8]
  Patient outcome: died
[9]; compared with other dopaminergic agents
  Incidence of psychological effects: lower incidence of psychological effects
[9]; subcutaneous administration at a concentration of 10 mg/ml
  Injection site reaction: nodule formation (panniculitis) may occur
[10]
  Affinity for D2-like dopamine receptors: particularly high affinity
